± gives the uncertainty stated by the source.
Assay: xn = mol fraction of the nth substance listed

C1CCCCC1 + CCC(C)O
viscosity [mPa·s], 101.33 kPa
Conditions | 298.15 K | 303.15 K | 313.15 K
x1 = 0.0998 | 2.334 ± 0.027 | – | 1.442 ± 0.017
x1 = 0.2045 | 1.841 ± 0.022 | – | 1.19 ± 0.014
x1 = 0.3002 | 1.524 ± 0.018 | – | 1.023 ± 0.012
x1 = 0.4007 | 1.285 ± 0.015 | – | 0.8968 ± 0.011
x1 = 0.4995 | 1.116 ± 0.013 | – | 0.8098 ± 0.0095
x1 = 0.6 | 1.001 ± 0.012 | – | 0.7497 ± 0.0088
x1 = 0.7028 | 0.9323 ± 0.011 | – | 0.7106 ± 0.0083
x1 = 0.8005 | 0.8895 ± 0.01 | – | 0.6896 ± 0.0081
x1 = 0.9036 | 0.872 ± 0.01 | – | 0.6801 ± 0.008
x2 = 0.1002 | – | 0.8606 ± 0.011 | –
x2 = 0.1978 | – | 0.9196 ± 0.011 | –
x2 = 0.3031 | – | 1.004 ± 0.012 | –
x2 = 0.4019 | – | 1.107 ± 0.014 | –
x2 = 0.4961 | – | 1.244 ± 0.015 | –
x2 = 0.5974 | – | 1.435 ± 0.017 | –
x2 = 0.695 | – | 1.68 ± 0.02 | –
x2 = 0.799 | – | 1.996 ± 0.023 | –
x2 = 0.8924 | – | 2.321 ± 0.027 | –

CCC(C)=O + CCC(C)O
viscosity [mPa·s], 101.3 kPa
Conditions | x2 = 0.1018 | x2 = 0.1991 | x2 = 0.2984 | x2 = 0.397 | x2 = 0.4966 | x2 = 0.5968 | x2 = 0.6985 | x2 = 0.8007 | x2 = 0.9003
298.15 K | 0.423 ± 0.005 | 0.461 ± 0.005 | 0.511 ± 0.007 | 0.578 ± 0.009 | – | 0.804 ± 0.015 | 1.005 ± 0.02 | 1.332 ± 0.03 | 1.896 ± 0.047
308.15 K | 0.38 ± 0.004 | 0.415 ± 0.005 | 0.452 ± 0.006 | 0.505 ± 0.007 | 0.576 ± 0.01 | 0.677 ± 0.012 | 0.824 ± 0.017 | – | 1.426 ± 0.035
318.15 K | 0.344 ± 0.004 | 0.369 ± 0.005 | 0.402 ± 0.005 | 0.445 ± 0.007 | 0.501 ± 0.008 | 0.578 ± 0.011 | 0.686 ± 0.014 | 0.849 ± 0.019 | 1.099 ± 0.027

COC(C)=O + CCC(C)O
298.15 K, 101.33 kPa
Conditions | viscosity [mPa·s]
x1 = 0.1056 | 1.854 ± 0.061
x1 = 0.2017 | 1.275 ± 0.043
x1 = 0.3076 | 0.921 ± 0.032
x1 = 0.3884 | 0.771 ± 0.027
x1 = 0.4935 | 0.64 ± 0.023
x1 = 0.5697 | 0.559 ± 0.021
x1 = 0.6653 | 0.485 ± 0.018
x1 = 0.7801 | 0.429 ± 0.017
x1 = 0.876 | 0.411 ± 0.016

COc1ccccc1N + CCC(C)O
viscosity [mPa·s], 101 kPa
Conditions | x1 = 0.1106 | x1 = 0.1844 | x1 = 0.2647 | x1 = 0.3523 | x1 = 0.4825 | x1 = 0.5919 | x1 = 0.6713 | x1 = 0.7566 | x1 = 0.8969
303.15 K | 2.843 ± 0.067 | 3.007 ± 0.07 | 3.188 ± 0.073 | 3.385 ± 0.078 | 3.681 ± 0.084 | 3.931 ± 0.089 | 4.114 ± 0.092 | 4.314 ± 0.097 | 4.656 ± 0.1
308.15 K | 2.398 ± 0.057 | 2.561 ± 0.06 | 2.739 ± 0.064 | 2.935 ± 0.068 | 3.229 ± 0.074 | 3.483 ± 0.079 | 3.671 ± 0.083 | 3.878 ± 0.087 | 4.233 ± 0.095
313.15 K | 2.083 ± 0.049 | 2.242 ± 0.053 | 2.413 ± 0.056 | 2.602 ± 0.06 | 2.891 ± 0.066 | 3.143 ± 0.072 | 3.331 ± 0.076 | 3.541 ± 0.08 | 3.906 ± 0.087
318.15 K | 1.788 ± 0.043 | 1.942 ± 0.046 | 2.107 ± 0.05 | 2.29 ± 0.054 | 2.572 ± 0.06 | 2.825 ± 0.065 | 3.017 ± 0.069 | 3.231 ± 0.073 | 3.6 ± 0.081

COc1ccccc1N + CCCC(=O)O
viscosity [mPa·s], 100 kPa
Conditions | x1 = 0.1187 | x1 = 0.1967 | x1 = 0.2806 | x1 = 0.3708 | x1 = 0.5026 | x1 = 0.6111 | x1 = 0.6888 | x1 = 0.7711 | x1 = 0.9041
303.15 K | 1.813 ± 0.074 | 2.094 ± 0.085 | 2.394 ± 0.097 | 2.716 ± 0.11 | 3.184 ± 0.13 | 3.567 ± 0.14 | 3.839 ± 0.16 | 4.126 ± 0.17 | 4.589 ± 0.19
308.15 K | 1.646 ± 0.067 | 1.911 ± 0.078 | 2.194 ± 0.089 | 2.497 ± 0.1 | 2.937 ± 0.12 | 3.298 ± 0.13 | 3.554 ± 0.14 | 3.824 ± 0.16 | 4.259 ± 0.17
313.15 K | 1.478 ± 0.06 | 1.726 ± 0.07 | 1.992 ± 0.081 | 2.276 ± 0.093 | 2.689 ± 0.11 | 3.027 ± 0.12 | 3.266 ± 0.13 | 3.519 ± 0.14 | 3.926 ± 0.16
318.15 K | 1.313 ± 0.053 | 1.547 ± 0.063 | 1.796 ± 0.073 | 2.063 ± 0.084 | 2.451 ± 0.1 | 2.768 ± 0.11 | 2.992 ± 0.12 | 3.229 ± 0.13 | 3.611 ± 0.15

COc1ccccc1N + CCCC(C)=O
viscosity [mPa·s], 100 kPa
Conditions | x1 = 0.0932 | x1 = 0.1824 | x1 = 0.2643 | x1 = 0.3512 | x1 = 0.4494 | x1 = 0.5391 | x1 = 0.654 | x1 = 0.7787 | x1 = 0.8784
303.15 K | 0.887 ± 0.037 | 1.312 ± 0.054 | 1.695 ± 0.069 | 2.099 ± 0.085 | 2.548 ± 0.1 | 2.952 ± 0.12 | 3.46 ± 0.14 | 3.999 ± 0.16 | 4.421 ± 0.18
308.15 K | 0.858 ± 0.036 | 1.257 ± 0.052 | 1.616 ± 0.066 | 1.99 ± 0.081 | 2.406 ± 0.098 | 2.776 ± 0.11 | 3.245 ± 0.13 | 3.741 ± 0.15 | 4.128 ± 0.17
313.15 K | 0.829 ± 0.035 | 1.202 ± 0.049 | 1.537 ± 0.063 | 1.879 ± 0.077 | 2.262 ± 0.092 | 2.598 ± 0.11 | 3.028 ± 0.12 | 3.481 ± 0.14 | 3.832 ± 0.15

Source: the CheMixHub viscosity set
